Reference: article PMC11671526, “β-caryophyllene sensitizes hepatocellular carcinoma cells to chemotherapeutics and inhibits cell malignancy through targeting MAPK signaling pathway” (Frontiers in Pharmacology, 2024)

Tested on: HepG2 cells
Experiment: RNA-seq transcriptome analysis of differentially expressed genes
Format: cell-based, human
Settings: BCP vs control HepG2
Description: The quality and concentration of RNA were examined by MOPS RNA electrophoresis and Eppendorf BioSpectrometer. The transcriptome analysis was performed by BGI-Wuhan China. The RNA-seq dataset of this study is accessible in the Gene Expression Omnibus (GEO) with an access number of GSE276099. The sequence library for each sample was prepared using the BGISEQ-500 platform with a 50-bp single-end (SE50) format. […]2.2.1) was used to align the clean reads to the reference genome and alignment of the clean reads to the reference genes was carried out using Bowtie2 (v2.4.5) ([Langmead and Salzberg, 2012]; [Kim et al., 2015]). Gene expression levels were calculated by RSEM (v1.3.1) ([Li and Dewey, 2011]). Analysis of differential gene expression was performed using edgeR in the Bioconductor software package ([Robinson et al., 2010]). Using a standard protocol, the RNA samples were also examined by reverse transcription and quantitative polymerase chain reaction (RT-qPCR). In brief, for reverse transcription, total RNA (1 μg) and gDNA wiper Mix were incubated at 42°C for 2 min. The samples were immediately incubated with a master mix containing 10 pmol/μL of poly (dT) primers at 37°C for 15 min and 85°C for 5 s. To detect the expression of specific genes by qPCR analysis, gene-specific primers (shown in Supplementary Table S1) were mixed with the ChamQ Universal SYBER qPCR Master Mix and the reaction was conducted using the Roche Lightcycler 480. The GAPDH value was used to normalize the results of each gene. The RNA-seq data of BCP-treated HepG2 cells were screened for DEGs. Gene symbols were turned into Enterz ID using the org.Hs.eg.db Bio-conductor R package. The cluster profiler (v4.6.2) package was used to perform the Kyoto Encyclopedia of Genes and Genomes (KEGG) and Gene Ontology (GO) enrichment analyses ([Wu et al., 2021]). Following the Transcript per million (TPM) data of the dataset, the line chart, and heatmap were plotted using ggplot2 and pheatmap R packages, respectively.

SMILES: C=C1CC/C=C(\C)CC[C@@H]2[C@@H]1CC2(C)C [BCP, β-caryophyllene]
- logFC LIPH (gene LIPH, RNA-seq): -0.6901
- change LIPH (gene LIPH, DEG direction): Down
- logFC LOC107984590 (gene LOC107984590, RNA-seq): -1.673
- change LOC107984590 (gene LOC107984590, DEG direction): Down
- logFC LRRK1 (gene LRRK1, RNA-seq): -0.9626
- change LRRK1 (gene LRRK1, DEG direction): Down
- logFC LYSMD4 (gene LYSMD4, RNA-seq): -0.6364
- change LYSMD4 (gene LYSMD4, DEG direction): Down
- logFC MAB21L4 (gene MAB21L4, RNA-seq): 0.9293
- change MAB21L4 (gene MAB21L4, DEG direction): Up
- logFC MAFA (gene MAFA, RNA-seq): -0.8959
- change MAFA (gene MAFA, DEG direction): Down
- logFC MAGEB17 (gene MAGEB17, RNA-seq): -2.787
- change MAGEB17 (gene MAGEB17, DEG direction): Down
- logFC MALL (gene MALL, RNA-seq): -0.8293
- change MALL (gene MALL, DEG direction): Down
- logFC MAMDC2 (gene MAMDC2, RNA-seq): 1.292
- change MAMDC2 (gene MAMDC2, DEG direction): Up
- logFC MAP1A (gene MAP1A, RNA-seq): -1.186
- change MAP1A (gene MAP1A, DEG direction): Down
- logFC MAP7 (gene MAP7, RNA-seq): 0.7065
- change MAP7 (gene MAP7, DEG direction): Up
- logFC MEF2B (gene MEF2B, RNA-seq): -1.481
- change MEF2B (gene MEF2B, DEG direction): Down
- logFC METTL7A (gene METTL7A, RNA-seq): -1.025
- change METTL7A (gene METTL7A, DEG direction): Down
- logFC MFSD12 (gene MFSD12, RNA-seq): 0.7075
- change MFSD12 (gene MFSD12, DEG direction): Up
- logFC MMP17 (gene MMP17, RNA-seq): 0.8815
- change MMP17 (gene MMP17, DEG direction): Up
- logFC MMP24 (gene MMP24, RNA-seq): 1.043
- change MMP24 (gene MMP24, DEG direction): Up
- logFC MNX1 (gene MNX1, RNA-seq): -0.6432
- change MNX1 (gene MNX1, DEG direction): Down
- logFC MRPS6 (gene MRPS6, RNA-seq): -0.923
- change MRPS6 (gene MRPS6, DEG direction): Down
- logFC MTUS2 (gene MTUS2, RNA-seq): -1.542
- change MTUS2 (gene MTUS2, DEG direction): Down
- logFC MXD4 (gene MXD4, RNA-seq): -0.5803
- change MXD4 (gene MXD4, DEG direction): Down
- logFC MYEOV (gene MYEOV, RNA-seq): -0.7568
- change MYEOV (gene MYEOV, DEG direction): Down
- logFC MYH15 (gene MYH15, RNA-seq): -1.78
- change MYH15 (gene MYH15, DEG direction): Down
- logFC MYLK3 (gene MYLK3, RNA-seq): 0.5851
- change MYLK3 (gene MYLK3, DEG direction): Up
- logFC MYT1L (gene MYT1L, RNA-seq): 0.8858
- change MYT1L (gene MYT1L, DEG direction): Up
- logFC MYZAP (gene MYZAP, RNA-seq): -1.044
- change MYZAP (gene MYZAP, DEG direction): Down
- logFC NDC80 (gene NDC80, RNA-seq): 0.6133
- change NDC80 (gene NDC80, DEG direction): Up
- logFC NES (gene NES, RNA-seq): -0.6748
- change NES (gene NES, DEG direction): Down
- logFC NEXN (gene NEXN, RNA-seq): 0.7024
- change NEXN (gene NEXN, DEG direction): Up
- logFC NKD1 (gene NKD1, RNA-seq): 1.009
- change NKD1 (gene NKD1, DEG direction): Up
- logFC NKD2 (gene NKD2, RNA-seq): 0.8671
- change NKD2 (gene NKD2, DEG direction): Up
- logFC NOG (gene NOG, RNA-seq): -0.6516
- change NOG (gene NOG, DEG direction): Down
- logFC NOXO1 (gene NOXO1, RNA-seq): -0.746
- change NOXO1 (gene NOXO1, DEG direction): Down
- logFC NPIPB8 (gene NPIPB8, RNA-seq): -2.227
- change NPIPB8 (gene NPIPB8, DEG direction): Down
- logFC NR4A1 (gene NR4A1, RNA-seq): 0.6275
- change NR4A1 (gene NR4A1, DEG direction): Up
- logFC NR4A3 (gene NR4A3, RNA-seq): 0.9047
- change NR4A3 (gene NR4A3, DEG direction): Up
- logFC OASL (gene OASL, RNA-seq): -1.216
- change OASL (gene OASL, DEG direction): Down
- logFC P4HA3 (gene P4HA3, RNA-seq): 1.2167
- change P4HA3 (gene P4HA3, DEG direction): Up
- logFC PAK6 (gene PAK6, RNA-seq): -1.538
- change PAK6 (gene PAK6, DEG direction): Down
- logFC PALM3 (gene PALM3, RNA-seq): -0.7485
- change PALM3 (gene PALM3, DEG direction): Down
- logFC PAPPA (gene PAPPA, RNA-seq): 0.997
- change PAPPA (gene PAPPA, DEG direction): Up
- logFC PAQR5 (gene PAQR5, RNA-seq): -0.667
- change PAQR5 (gene PAQR5, DEG direction): Down
- logFC PCSK1 (gene PCSK1, RNA-seq): 0.7709
- change PCSK1 (gene PCSK1, DEG direction): Up
- logFC PDE7B (gene PDE7B, RNA-seq): 0.7688
- change PDE7B (gene PDE7B, DEG direction): Up
- logFC PDK1 (gene PDK1, RNA-seq): 0.6017
- change PDK1 (gene PDK1, DEG direction): Up
- logFC PDK4 (gene PDK4, RNA-seq): 1.109
- change PDK4 (gene PDK4, DEG direction): Up
- logFC PI3 (gene PI3, RNA-seq): -1.544
- change PI3 (gene PI3, DEG direction): Down
- logFC PLD1 (gene PLD1, RNA-seq): 0.6612
- change PLD1 (gene PLD1, DEG direction): Up
- logFC PLEKHG1 (gene PLEKHG1, RNA-seq): 0.983
- change PLEKHG1 (gene PLEKHG1, DEG direction): Up
- logFC PNPLA6 (gene PNPLA6, RNA-seq): -0.6244
- change PNPLA6 (gene PNPLA6, DEG direction): Down
- logFC PPP1R15A (gene PPP1R15A, RNA-seq): 0.636
- change PPP1R15A (gene PPP1R15A, DEG direction): Up
- logFC PRICKLE2 (gene PRICKLE2, RNA-seq): -2.048
- change PRICKLE2 (gene PRICKLE2, DEG direction): Down
- logFC PRKCZ (gene PRKCZ, RNA-seq): 0.789
- change PRKCZ (gene PRKCZ, DEG direction): Up
- logFC PRRG4 (gene PRRG4, RNA-seq): -0.7407
- change PRRG4 (gene PRRG4, DEG direction): Down
- logFC PSD4 (gene PSD4, RNA-seq): -0.8285
- change PSD4 (gene PSD4, DEG direction): Down
- logFC PTGS1 (gene PTGS1, RNA-seq): -1.083
- change PTGS1 (gene PTGS1, DEG direction): Down
- logFC PXDN (gene PXDN, RNA-seq): 0.6603
- change PXDN (gene PXDN, DEG direction): Up
- logFC RAB17 (gene RAB17, RNA-seq): -1.103
- change RAB17 (gene RAB17, DEG direction): Down
- logFC RAB43 (gene RAB43, RNA-seq): -0.73
- change RAB43 (gene RAB43, DEG direction): Down
- logFC RAPGEF3 (gene RAPGEF3, RNA-seq): -0.8733
